From the NIST ThermoML archive (doi:10.1016/j.jct.2017.05.042)

Conditions: 101.33 kPa, Liquid, Concentric cylinders viscometry

OCC(O)CO [glycerol]
Conditions	viscosity [mPa·s]
292.89 K	1470
298.1 K	970.6
302.59 K	645.8
312.81 K	305.3
323.88 K	147.4
333.15 K	84.71
343.8 K	49.83
353.67 K	31.8
364.12 K	21.05
374.38 K	14.74
383.29 K	11
394.08 K	8.32
